Test results taken from the NIST ThermoML archive (doi:10.1021/je201102x).
± gives the expanded uncertainty stated by the source.

Assay: xn = mol fraction of the nth substance listed
Conditions: 101 kPa, Liquid, Vibrating tube method

CCC(C)(C)O [2-methylbutan-2-ol] + CC(=O)O
mass density [kg/m3]
Conditions | 283.15 K | 293.15 K | 303.15 K | 313.15 K | 323.15 K | 333.15 K
x2 = 0.0794 | 819.64 ± 0.13 | 814.95 ± 0.14 | 810.22 ± 0.18 | 800.6 ± 0.14 | 790.72 ± 0.15 | 780.53 ± 0.15
x2 = 0.0827 | 820.07 ± 0.13 | 815.38 ± 0.14 | 810.64 ± 0.15 | 801.02 ± 0.14 | 791.14 ± 0.14 | 780.94 ± 0.15
x2 = 0.1664 | 832.07 ± 0.13 | 827.35 ± 0.13 | 822.59 ± 0.13 | 812.92 ± 0.14 | 803.02 ± 0.14 | 792.86 ± 0.14
x2 = 0.1672 | 832.17 ± 0.13 | 827.45 ± 0.13 | 822.69 ± 0.13 | 813.02 ± 0.14 | 803.12 ± 0.14 | 792.96 ± 0.14
x2 = 0.2361 | 842.73 ± 0.12 | 838.01 ± 0.12 | 833.24 ± 0.13 | 823.57 ± 0.13 | 813.68 ± 0.13 | 803.54 ± 0.14
x2 = 0.3176 | 856.35 ± 0.12 | 851.61 ± 0.12 | 846.84 ± 0.12 | 837.15 ± 0.12 | 827.25 ± 0.13 | 817.14 ± 0.13
x2 = 0.3914 | 869.87 ± 0.11 | 865.1 ± 0.11 | 860.3 ± 0.11 | 850.57 ± 0.12 | 840.64 ± 0.12 | 830.51 ± 0.12
x2 = 0.4798 | 887.62 ± 0.1 | 882.8 ± 0.11 | 877.94 ± 0.11 | 868.11 ± 0.11 | 858.1 ± 0.11 | 847.89 ± 0.12
x2 = 0.5577 | 904.94 ± 0.1 | 900.05 ± 0.1 | 895.12 ± 0.1 | 885.16 ± 0.11 | 875.04 ± 0.11 | 864.74 ± 0.11
x2 = 0.6427 | 925.88 ± 0.09 | 920.88 ± 0.09 | 915.86 ± 0.1 | 905.72 ± 0.1 | 895.44 ± 0.1 | 885.01 ± 0.11
x2 = 0.7195 | 946.94 ± 0.09 | 941.83 ± 0.09 | 936.71 ± 0.09 | 926.37 ± 0.1 | 915.92 ± 0.1 | 905.33 ± 0.1
x2 = 0.7999 | 971.66 ± 0.09 | 966.42 ± 0.09 | 961.16 ± 0.09 | 950.58 ± 0.09 | 939.91 ± 0.09 | 929.13 ± 0.1
x2 = 0.8769 | 998.52 ± 0.09 | 993.12 ± 0.09 | 987.72 ± 0.09 | 976.88 ± 0.09 | 965.96 ± 0.09 | 954.98 ± 0.1
x2 = 0.96 | 1031.62 ± 0.1 | 1026.04 ± 0.09 | 1020.47 ± 0.09 | 1009.32 ± 0.09 | 998.13 ± 0.09 | 986.89 ± 0.09

CCC(C)(C)O [2-methylbutan-2-ol] + CCC(=O)O
mass density [kg/m3]
Conditions | 283.15 K | 293.15 K | 303.15 K | 313.15 K | 323.15 K | 333.15 K
x2 = 0.0822 | 819.84 ± 0.14 | 815.21 ± 0.14 | 810.53 ± 0.14 | 801.01 ± 0.14 | 791.2 ± 0.15 | 781.09 ± 0.15
x2 = 0.16 | 830.58 ± 0.13 | 825.94 ± 0.14 | 821.26 ± 0.14 | 811.74 ± 0.14 | 801.99 ± 0.14 | 791.96 ± 0.15
x2 = 0.2419 | 842.49 ± 0.13 | 837.85 ± 0.13 | 833.18 ± 0.13 | 823.69 ± 0.14 | 814 ± 0.14 | 804.06 ± 0.14
x2 = 0.3189 | 854.39 ± 0.13 | 849.75 ± 0.13 | 845.08 ± 0.13 | 835.62 ± 0.13 | 825.96 ± 0.14 | 816.07 ± 0.14
x2 = 0.4024 | 868.02 ± 0.12 | 863.37 ± 0.13 | 858.68 ± 0.13 | 849.19 ± 0.13 | 839.53 ± 0.13 | 829.68 ± 0.14
x2 = 0.4806 | 881.53 ± 0.12 | 876.85 ± 0.12 | 872.13 ± 0.12 | 862.6 ± 0.13 | 852.91 ± 0.13 | 843.03 ± 0.13
x2 = 0.5588 | 895.71 ± 0.12 | 890.97 ± 0.12 | 886.21 ± 0.12 | 876.6 ± 0.12 | 866.84 ± 0.13 | 856.93 ± 0.13
x2 = 0.6429 | 911.85 ± 0.11 | 907.05 ± 0.12 | 902.23 ± 0.12 | 892.5 ± 0.12 | 882.64 ± 0.12 | 872.64 ± 0.13
x2 = 0.7218 | 927.93 ± 0.11 | 923.03 ± 0.11 | 918.13 ± 0.11 | 908.25 ± 0.12 | 898.28 ± 0.12 | 888.18 ± 0.12
x2 = 0.785 | 941.5 ± 0.11 | 936.52 ± 0.11 | 931.53 ± 0.11 | 921.51 ± 0.11 | 911.41 ± 0.12 | 901.2 ± 0.12
x2 = 0.8812 | 963.57 ± 0.1 | 958.43 ± 0.1 | 953.3 ± 0.11 | 942.98 ± 0.11 | 932.62 ± 0.11 | 922.2 ± 0.11
x2 = 0.9561 | 982.1 ± 0.1 | 976.8 ± 0.1 | 971.51 ± 0.1 | 960.92 ± 0.11 | 950.3 ± 0.11 | 939.64 ± 0.11
